# The supplement of paper PMC10307832
# Experiments:
# Experiment in all cases: relative viability (nuclei count vs DMSO), 5 days (fraction); higher = more cells survive
# XMD13-2 + Linsitinib = compound: C1CC1C(=O)NC2=NNC3=C2C=CC(=C3)C4=CC(=CC=C4)C(=O)NC5CC5 [XMD13-2] + C[C@]1(O)C[C@@H](c2nc(-c3ccc4ccc(-c5ccccc5)nc4c3)c3c(N)nccn32)C1 [Linsitinib] (partner 1 µM)
# Summary of the method: (§1)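 Relative viability equals treated-well nuclei counts divided by vehicle-well nuclei counts. Counts came from 4× images of lung cancer cell lines grown in 1536-well plates for 5 days after pin-tool dosing on the day after seeding. Dosing used one drug alone or a fixed anchor-drug dose plus five library-drug doses (not always all listed) in √10 steps, and values are medians of duplicate plates.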
# ALW-II-49-7 + OSI-027 = compound: Cc1ccc(C(=O)Nc2cccc(C(F)(F)F)c2)cc1Nc1cncc(C(N)=O)c1 [ALW-II-49-7] + COc1cccc2cc(-c3nc([C@H]4CC[C@H](C(=O)O)CC4)n4ncnc(N)c34)[nH]c12 [OSI-027] (partner 0.5 µM)
# Summary of the method: as §1
# ALW-II-49-7 + Dasatinib = compound: Cc1ccc(C(=O)Nc2cccc(C(F)(F)F)c2)cc1Nc1cncc(C(N)=O)c1 [ALW-II-49-7] + Cc1nc(Nc2ncc(C(=O)Nc3c(C)cccc3Cl)s2)cc(N2CCN(CCO)CC2)n1 [Dasatinib] (partner 0.075 µM)
# Summary of the method: as §1
# ALW-II-49-7 + Pemetrexed = compound: Cc1ccc(C(=O)Nc2cccc(C(F)(F)F)c2)cc1Nc1cncc(C(N)=O)c1 [ALW-II-49-7] + Nc1nc2[nH]cc(CCc3ccc(C(=O)N[C@@H](CCC(=O)O)C(=O)O)cc3)c2c(=O)[nH]1 [Pemetrexed] (partner 0.2 µM)
# Summary of the method: as §1
cell line,measurement,setting,value
UMC-11,relative viability,XMD13-2 + Linsitinib; first compound 0.05 µM,1.18
same,relative viability,XMD13-2 + Linsitinib; first compound 0.1581 µM,0.942
same,relative viability,XMD13-2 + Linsitinib; first compound 0.5 µM,0.996
same,relative viability,XMD13-2 + Linsitinib; first compound 1.581 µM,1.07
same,relative viability,XMD13-2 + Linsitinib; first compound 5 µM,1.04
same,relative viability,ALW-II-49-7 + OSI-027; first compound 0.08 µM,0.499
same,relative viability,ALW-II-49-7 + OSI-027; first compound 0.253 µM,0.457
same,relative viability,ALW-II-49-7 + OSI-027; first compound 0.8 µM,0.487
same,relative viability,ALW-II-49-7 + OSI-027; first compound 2.53 µM,0.434
same,relative viability,ALW-II-49-7 + OSI-027; first compound 8 µM,0.485
same,relative viability,ALW-II-49-7 + Dasatinib; first compound 0.08 µM,0.428
same,relative viability,ALW-II-49-7 + Dasatinib; first compound 0.253 µM,0.453
same,relative viability,ALW-II-49-7 + Dasatinib; first compound 0.8 µM,0.473
same,relative viability,ALW-II-49-7 + Dasatinib; first compound 2.53 µM,0.456
same,relative viability,ALW-II-49-7 + Dasatinib; first compound 8 µM,0.519
same,relative viability,ALW-II-49-7 + Pemetrexed; first compound 0.08 µM,0.856
same,relative viability,ALW-II-49-7 + Pemetrexed; first compound 0.253 µM,0.79
same,relative viability,ALW-II-49-7 + Pemetrexed; first compound 0.8 µM,0.76
same,relative viability,ALW-II-49-7 + Pemetrexed; first compound 2.53 µM,0.803
same,relative viability,ALW-II-49-7 + Pemetrexed; first compound 8 µM,0.705
